Each structure is given as a SMILES string. Where a name gives a salt, the structure may show the parent alone.

Data on two compounds can be found in patent publication US10570140B2, “Selective inhibitors of protein arginine methyltransferase 5 (PRMT5)” (Prelude Therapeutics, Incorporated, priority 2017, dated 2020).

For data set [1], the system named is sDMA. In words: Western blot for symmetric di-methyl arginine (sDMA) IC50 in Granta cells. Format: cell-based. Particulars: Homo sapiens, 72 h; Granta-519 cell line, 3 days. (In general: In western blotting, separated proteins are transferred to a membrane and probed.)
The subject of data set [2] is Granta-519 cells. In words: Cell proliferation assay on Granta-519 cells (CCK-8, day 10). Format: cell-based. Particulars: Homo sapiens, 240 h, Granta-519 cell line, read-out: Prolif. IC50. How it is done:
Cell Proliferation Assay to Determine IC50 on Granta-519 Cells
Granta-519 cells were maintained in PRMI 1640 (Corning Cellgro, Catalog #: 10-040-CV) medium supplemented with 10% v/v FBS (GE Healthcare, Catalog #: SH30910.03). Compounds were dissolved in DMSO to make 10 mM stocks and stored at −20° C. Nine-point, 3-fold serial dilutions were made with DMSO with top concentration at 1 mM (working stocks).
On day of experiment, compound working stocks were further diluted at 1:50 with fresh medium in 96 well plate, and 10 μL of diluted drugs were added to a new 96 well plate for proliferation assay. Cells growing at exponential phase were spun down at 1500 rpm for 4 min and resuspend in fresh medium to reach a density of 0.5×10^6 cells/ml. 200 ul of cells were added to 96 well plate containing diluted drugs and incubated for 3 days. DMSO was used a vehicle control.
One day 3, 10 μL of Cell Counting Kit-8 (CCK-8, Jojindo, CK04-13) solution was added to a new 96 well plate. Cells incubated with drugs for 3 days were resuspended by pipetting up and down, and 100 μL of cells were transferred to 96 well plate containing CCK-8 reagent to measure viable cells. Plates were incubated in CO2 incubator for 2 hours and OD450 values were measured with a microplate reader (iMark microplate reader, Bio-Rad).
For re-plating, compound working stocks were diluted at 1:50 with fresh medium and 10 μL of diluted drugs were added to a new 96 well plate. Cells from Day 3 plate (50 ul) were added to 96 well plate containing fresh drug and additional 150 μL of fresh medium was added to reach 200 μL volume. Plate was returned to CO2 incubator and incubated for 3 more days. Viable cells measurement and re-plating were repeated on day 6, and the final viable cells measurement was taken on day 10.
Percentage of viable cells, relative to DMSO vehicle control, were calculated and plotted in Graphpad Prism ([Inhibitor] vs. normalized response−Variable slope) to determine proliferation IC50 values on day 10.

Data set [3] in a line: Body weight in Granta-519 mouse xenograft study. Format: in vivo. How it is done: (§1) Granta-519 cells was maintained in DMEM medium supplemented with 10% fetal bovine serum and 2 mM L-Glutamine at 37° C. in an atmosphere of 5% CO2 in air. Cells in exponential growth phase were harvested and 1×10^7 cells in 0.1 mL of PBS with Matrigel (1:1) were injected subcutaneously at the right lower flank region of each mouse for tumor development. The treatments were started when the mean tumor size reaches approximately 300-400 mm^3. […] Example 47 or vehicle (0.5% Na CMC+0.5% Tween80, suspension) were administered orally (QD for Example 47, QD for vehicle) at a dose of 30 mg/kg and 50 mg/kg for 19 and 16 days, respectively. Body weights and tumor size were measured every 3 to 4 days after randomization. Animals were euthanized 12 hours after last dosing, and blood and tumor samples were collected for analysis.

Data set [4] concerns sDMA. In words: sDMA levels in tumor samples of Granta-519 mouse xenograft (WB). It counts as in vivo. The procedure:
as §1
To measure sDMA levels in tumor samples, tumors from each mouse were weighted and homogenized in RIPA buffer supplemented with protease inhibitor (cOmplete™, EDTA-free Protease Inhibitor Cocktail, Roche). Lysate were centrifuged at 14,000 rpm for 30 min at 4° C. to remove debris. Total protein concentrations of lysate were determined by BCA assay (ThermoFisher Scientific, Catalog #: 23225). Equal amount of total proteins from each tumor were separated on SDS-PAGE gel, and sDMA levels were determined by WB as described previously.

Data set [5] addresses PRMT5/MEP50 complex (Homo sapiens (Human), UniProt O14744). In words: PRMT5 biochemical assay (3H-SAM filter plate, histone H2A substrate). Particulars: PRMT5/MEP50 5 nM, histone H2A 5 μM, SAM 1 μM; read-out: PRMT5 IC50. How it is done:
Biochemical Assay Protocol
Compounds were solubilized and 3-fold diluted in 100% DMSO. […] Standard reactions were performed in a total volume of 50 μl in assay buffer, with histone H2A (5 μM final) as substrate. To this was added the PRMT5/MEP50 complex diluted to provide a final assay concentration of 5 nM and the compounds were allowed to preincubate for 15 to 20 minutes at room temperature. The reaction was initiated by adding S-[3H-methyl]-adenosyl-L-methionine (PerkinElmer) to final concentration of 1 μM. Following a 60 minutes incubation at 30° C., the reaction was stopped by adding 100 μL of 20% TCA. Each reaction was spotted onto filter plate (MultiScreen FB Filter Plate, Millipore), and washed 5 times with PBS buffer, Scintillation fluid was added to the filter plate and read in a scintillation counter. IC50 values were determined by fitting the data to the standard 4 parameters with Hill Slope using GraphPad Prism software.

In data set [6] the test system is Granta-519. In words: Tumor growth inhibition in Granta-519 mouse xenograft model. It counts as in vivo. How it is done:
In Vivo Pharmacodynamic Effect and Tumor Growth Inhibition of Example 47 in Granta-519 Mouse Xenograft Model.
as §1

Data set [7] is described as follows: Rat non-crossover PK study. It counts as in vivo. How it is done:
In Vivo Pharmacokinetic Properties of Example 47.
In a rat (SD, male, non-fasted) non-crossover PK study, Example 47 was dosed at 1 mg/kg (DMA: 20% HPBCD=5:95, solution) via i.v. administration (N=3) and 1 mg/kg (0.5% Na CMC+0.5% Tween80, solution) via oral gauge (p.o.) (N=3).

A short description of data set [8]: physchem. Particulars: FaSSIF buffer, 25 °C, thermodynamic from solid.

PRMT5/MEP50 complex, sequence (O14744 whole entry): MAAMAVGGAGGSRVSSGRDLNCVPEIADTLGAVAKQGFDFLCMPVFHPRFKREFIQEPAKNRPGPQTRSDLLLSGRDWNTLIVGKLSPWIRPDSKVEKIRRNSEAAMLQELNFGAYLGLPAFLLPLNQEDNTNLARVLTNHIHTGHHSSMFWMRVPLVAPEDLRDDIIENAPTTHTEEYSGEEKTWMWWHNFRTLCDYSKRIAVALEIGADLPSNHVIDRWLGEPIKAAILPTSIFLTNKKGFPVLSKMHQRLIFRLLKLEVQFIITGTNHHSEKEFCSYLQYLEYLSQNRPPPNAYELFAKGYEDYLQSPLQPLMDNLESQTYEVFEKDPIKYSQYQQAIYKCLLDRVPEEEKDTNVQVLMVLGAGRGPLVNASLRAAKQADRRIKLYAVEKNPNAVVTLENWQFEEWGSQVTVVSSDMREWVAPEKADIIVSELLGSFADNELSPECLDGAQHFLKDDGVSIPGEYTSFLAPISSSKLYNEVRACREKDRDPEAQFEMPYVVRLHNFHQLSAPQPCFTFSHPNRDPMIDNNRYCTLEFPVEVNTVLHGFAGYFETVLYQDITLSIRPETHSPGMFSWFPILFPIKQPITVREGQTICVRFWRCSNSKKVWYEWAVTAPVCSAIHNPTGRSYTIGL
PRMT5/MEP50 complex, sequence (Q9BQA1 whole entry partner): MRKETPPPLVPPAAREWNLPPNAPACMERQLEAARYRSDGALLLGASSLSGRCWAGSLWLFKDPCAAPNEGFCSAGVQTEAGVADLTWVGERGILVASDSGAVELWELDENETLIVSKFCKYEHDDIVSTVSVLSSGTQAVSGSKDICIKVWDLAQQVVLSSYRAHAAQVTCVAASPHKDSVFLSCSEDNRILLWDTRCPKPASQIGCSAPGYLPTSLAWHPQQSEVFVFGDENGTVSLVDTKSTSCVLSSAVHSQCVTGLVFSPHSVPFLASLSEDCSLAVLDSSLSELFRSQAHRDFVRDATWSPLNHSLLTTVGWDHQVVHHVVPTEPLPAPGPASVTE

For the compound `C[C@@]1(O)[C@@H]([C@H](O)c2ccc(Cl)c(Cl)c2)O[C@@H](n2ccc3c(N)ncnc32)[C@@H]1O` [Example 47, (2R,3S,4R,5R)-5-(4-amino-7H-pyrrolo[2,3-d]pyrimidin-7-yl)-2-((R)-(3,4-dichlorophenyl)(hydroxy)methyl)-3-methyltetrahydrofuran-3,4-diol], the IC50 stood at 31 nM in data set [1], 75 nM in data set [2] and 1.5 nM in data set [5]. Besides, the body weight loss came out at 1% in data set [3] (30 mg/kg orally QD, 19 days) and 8% in data set [3] (50 mg/kg orally QD, 16 days). In data set [4] (50 mg/kg), the sDMA in tumor result was “no detectable sDMA”. The same compound displayed an inhibition at 30 mg/kg in data set [4] (Mus musculus, Granta-519, 30 mg/kg) of over 90%. The tumor growth inhibition in data set [6] (30 mg/kg orally QD, 19 days, average (N=5)) worked out at 46%; in data set [6] (50 mg/kg orally QD, 16 days, average), 79%. This compound had a half-life in data set [7] (blood, iv, rat (SD, male, non-fasted), 1 mg/kg i.v., average) of 4.1 h. The Vd in data set [7] (male, SD, blood, iv, rat, 1 mg/kg i.v., average, read-out: Vss) came to 3.1 L/kg. In addition, the bioavailability in data set [7] (male, SD, blood, po, rat, 1 mg/kg p.o.) was over 100%. In data set [7] (male, SD, whole blood, iv, rat, 1 mg/kg i.v., average), this compound yielded a clearance of 8.8 mL/min/kg. Also, the “dose normalized AUC” value in data set [7] (rat, 1 mg/kg p.o., average) was found to be 3246 ng·kg·h/mL/mg.
In data set [8], `C[C@@]1(O)[C@@H]([C@H](O)c2ccc(Cl)c(Cl)c2)O[C@@H](n2ccc3c(N)ncnc32)[C@@H]1O` [Example 48, (2R,3S,4R,5R)-5-(4-amino-7H-pyrrolo[2,3-d]pyrimidin-7-yl)-2-((R)-(3,4-dichlorophenyl)(hydroxy)methyl)-3-methyltetrahydrofuran-3,4-diol Sulfate Salt] registered a solubility at 4 h of 206 µg/mL.

As usually defined, the IC50 is the midpoint of a concentration-inhibition curve. The term inhibition denotes the relative decrease from the control value, in per cent. Usually half-life stands for the time needed for the level to fall by half in the phase considered. A lower half-life goes with fast loss. Broadly, the bioavailability is dose-corrected exposure relative to a reference, in per cent. Read a high bioavailability as good availability. One may read the clearance as the volume of plasma or blood freed of the substance per unit of time. As usually defined, the solubility is the concentration that dissolves in the medium under given conditions. A lower solubility goes with a poorly soluble substance.
